Viability and minimum viability data for 36 molecules are collected here from PubChem BioAssay AID2286 (Southern Research Specialized Biocontainment Screening …, 2010).

The assay is described as follows: viability loss in fusion assay cells – cell-based, MAGI and MAGI-HeLa co-culture, cytotoxicity control for HIV-1 fusion inhibitor project, dose response (AID 2286).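 As to all read-outs here: cells exposed to compound for at least 64 h before ATP readout; 100% = median of DMSO vehicle wells with no ATP signal meaning 0%.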 As to conditions: MAGI-CCR5 cells viability, CellTiter-Glo ATP luminescence; for minimum viability: measured here: MAGI minimum viability across doses.
[1] abbreviates: MAGI-HeLa co-culture viability, at 50 µM, stronger effect = lower value.
The mark [2] stands for this setting: at 1.56 µM, stronger effect = lower value.
Where [3] appears, read: at 12.5 µM, stronger effect = lower value.
Where [4] appears, read: at 3.13 µM, stronger effect = lower value.

Each structure is given as a SMILES string. The source made the active and inactive calls.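 The calls were made as follows: active = minimum cell viability of 80% or lower across the dose range, counted as toxic; inactive = minimum cell viability above 80%.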

In general, viability refers to a read-out of living cells in per cent, often relative to untreated cells. Consider `CCCCCOc1ccc(C2C(C(=O)c3ccc(C)o3)=C(O)C(=O)N2c2cc(C)on2)cc1` (stereo not drawn), for which the viability is 113% under setting [1] and 85.1% (inactive) (at 50 µM (top of the series)). In addition, where the note is “at 25 µM, stronger effect = lower value”, the minimum viability turned out to be 84.6%.
With `CCS(=O)(=O)C1=NSC2=NC(=O)/C(=C\c3ccc(OS(=O)(=O)c4ccccc4)cc3)C(=N)N21`, under setting [1], the viability worked out at 85.9%. The minimum viability (at 50 µM, stronger effect = lower value) stood at 74.9%.
As to `NC(=O)Cn1cc(C=C2C(=O)NC(=O)NC2=O)c2ccccc21`, the viability is 99.6% under setting [1] and 91.7% (inactive) (at 50 µM (top of the series)). For the same molecule, for the setting “at 50 µM, stronger effect = lower value”, the minimum viability was 91.7%.
Consider `COc1ccc(-c2csc(NC(=O)CSc3nc(C)nc4sc(C(=O)O)c(C)c34)n2)cc1`, for which the viability by setting is: under setting [1], 109%; (at 50 µM (top of the series)) 99.7% (inactive). Moreover, under setting [2], the minimum viability was determined as 83.4%.
For the molecule `Cc1c(CCC(=O)O)c(=O)oc2c(C)c3occ(-c4ccc(Cl)cc4)c3cc12`, the viability under setting [1] is 117%. Besides, for the setting “at 25 µM, stronger effect = lower value”, the minimum viability came to 64%.
For `O=C1N/C(=N\S(=O)(=O)c2ccccc2)S/C1=C\c1cc([N+](=O)[O-])ccc1O`, the viability is, setting by setting: under setting [1], 107%; (at 50 µM (top of the series)) 93.8% (inactive). For the same molecule, the minimum viability under setting [3] came to 88.1%.
With `O=C(O)c1cccc(N/N=C/c2cc(Br)cc(Br)c2O)c1`, the viability runs as follows: under setting [1], 132%; (at 50 µM (top of the series)) 127% (inactive). Further, the minimum viability under setting [4] worked out at 90.9%.
With `O=C1NN(c2ccc(F)c(Cl)c2)C(=O)/C1=C\c1cccc(OC(=O)c2cccs2)c1`, the viability under setting [1] was 111% and the viability (at 50 µM (top of the series)) is 92.7% (inactive). Also, for the setting “at 50 µM, stronger effect = lower value”, the minimum viability was 92.7%.
`O=C(Nc1cc(C(=O)Nc2ccccc2C(=O)O)cc(C(=O)Nc2ccccc2C(=O)O)c1)c1ccccc1`: the viability is, setting by setting: under setting [1], 122%; (at 50 µM (top of the series)) 113% (inactive). Moreover, under “at 6.25 µM, stronger effect = lower value”, the minimum viability is 90.9%.
In the case of `CCOc1ccc(NC(=NCc2ccc3c(c2)OCO3)SC2CC(=O)N(c3ccc(C(=O)O)cc3)C2=O)cc1` (stereo not drawn), the viability was 81.3% under setting [1] and 84.3% (inactive) (at 25 µM (top of the series)). For the same molecule, the minimum viability (at 25 µM, stronger effect = lower value) amounted to 84.3%.
Turning to `O=C1NN(c2ccccc2)C(=O)/C1=C\c1cccc(OC(=O)c2cccs2)c1`, the viability runs as follows: under setting [1], 103%; (at 50 µM (top of the series)) 85.1% (inactive). Where the note is “at 50 µM, stronger effect = lower value”, the minimum viability turned out to be 85.1%.
For the molecule `O=c1[nH]c(=S)[nH]c2c1C(c1ccc(Br)cc1)c1c([nH]c(=S)[nH]c1=O)O2`, the viability is 116% under setting [1] and 91.7% (inactive) (at 50 µM (top of the series)). Moreover, the minimum viability under setting [3] came out at 82.5%.
Consider `COc1cc(/C=C2\SC(=O)N(CC(=O)Nc3cccc(C)c3)C2=O)cc([N+](=O)[O-])c1O`, for which the viability under setting [1] was 111%. The minimum viability (at 50 µM, stronger effect = lower value) amounted to 74.5%.
On to `COc1ccc(C(=O)Oc2ccc(/C=N/Nc3ccc(Cl)c(C(=O)O)c3)cc2OC)cc1`, for which the viability is, setting by setting: under setting [1], 104%; (at 50 µM (top of the series)) 80.5% (inactive). Further, the minimum viability (at 50 µM, stronger effect = lower value) was determined as 80.5%.
For `O=C(O)c1ccc(-c2ccc(/C=c3/sc4nc5ccccc5n4c3=O)o2)cc1Cl`, the viability by setting is: under setting [1], 116%; (at 50 µM (top of the series)) 92.3% (inactive). Also, the minimum viability (at 25 µM, stronger effect = lower value) was found to be 87.5%.
For `COc1cc(/C=N/NS(=O)(=O)c2ccc3ccccc3c2)ccc1OCc1ccc(C(=O)O)cc1`, the viability is, setting by setting: under setting [1], 115%; (at 50 µM (top of the series)) 93.7% (inactive). For the same molecule, for the setting “at 25 µM, stronger effect = lower value”, the minimum viability was determined as 85.7%.
Take `O=C(O)C1Nc2c(cccc2C(F)(F)F)C2C=CCC12` (stereo not drawn): the viability is 124% under setting [1] and 106% (inactive) (at 50 µM (top of the series)). Moreover, under setting [3], the minimum viability was found to be 86.1%.
Turning to `CN1C(=O)/C(=C/c2ccc(C(=O)Nc3ccc(O)cc3C(=O)O)cc2)SC1=S`, the viability by setting is: under setting [1], 104%; (at 50 µM (top of the series)) 91% (inactive). Moreover, the minimum viability under setting [3] stood at 87.9%.
As for `Oc1c(Br)cc(Br)c(/C=N/n2c(-c3ccccc3)n[nH]c2=S)c1Br`, the viability was 99.3% under setting [1] and 90.8% (inactive) (at 50 µM (top of the series)). For the same molecule, the minimum viability (at 50 µM, stronger effect = lower value) turned out to be 90.8%.
In the same order, the values of `O=C(O)CN1C(=O)/C(=C\c2cccc(OCc3ccc(Cl)cc3)c2)SC1=S` are 98.9%, 83.6% (inactive) and 83.6%.
Regarding `O=C1NC(=S)N(c2ccc(F)cc2)C(=O)/C1=C/c1ccco1`, the viability reads like this: under setting [1], 122%; (at 50 µM (top of the series)) 131% (inactive). Also, under setting [2], the minimum viability was determined as 105%.
`O=C(COc1cccc2ccccc12)Nc1ccc(Cl)cc1C(=O)O`: the viability under setting [1] is 86.1%. For the same molecule, for the setting “at 50 µM, stronger effect = lower value”, the minimum viability was 67.5%.
With `O=C(O)c1ccc(NS(=O)(=O)c2ccc3c(c2)C2C=CCC2C(c2ccccc2F)N3)cc1` (stereo not drawn), the viability under setting [1] stood at 111% and the viability (at 50 µM (top of the series)) is 102% (inactive). Under setting [4], the minimum viability turned out to be 93.8%.
Regarding `COc1ccc(N2C(=O)/C(=C/c3ccco3)C(=O)NC2=S)cc1`, the viability was 86.3% under setting [1] and 100% (inactive) (at 50 µM (top of the series)). Further, the minimum viability under setting [2] was 84.8%.
As to `COc1ccc(-c2nn(-c3ccccc3)cc2/C=C\C(=O)Nc2ccc(C(=O)O)cc2)cc1`, the viability under setting [1] was found to be 93.2%. In addition, under “at 50 µM, stronger effect = lower value”, the minimum viability is 73%.
The matching figures for `CCCOc1ccc(C2C(C(=O)c3cc4ccccc4o3)=C(O)C(=O)N2c2cc(C)on2)cc1` (stereo not drawn): 97.9% and 67.9%.
In the same order, the values of `O=c1oc2ccccc2c(O)c1C(c1ccc([N+](=O)[O-])cc1)c1c(O)c2ccccc2oc1=O` are 133% and 68.8%.
Regarding `O=C(O)c1cc(-c2ccc(/C=N/Nc3ccc(Cl)cc3)o2)ccc1Cl`, the viability under setting [1] was 87.3%. The minimum viability (at 50 µM, stronger effect = lower value) stood at 62%.
Take `CCOc1cc(/C=N/NC(=O)c2ccc(-c3csc(Nc4ccc(C)cc4)n3)cc2)ccc1OCC(=O)O`: the viability under setting [1] turned out to be 92.6% and the viability (at 50 µM (top of the series)) is 90.2% (inactive). Besides, the minimum viability under setting [3] amounted to 83.3%.
For `CC1(C)CC(=O)C2=C(C1)c1c(ccc3ccccc13)NC2c1cc([N+](=O)[O-])cc([N+](=O)[O-])c1O` (stereo not drawn), the viability under setting [1] is 107%. Further, the minimum viability (at 50 µM, stronger effect = lower value) came to 56%.
Turning to `O=C(O)c1[nH]c2ccccc2c1C(c1ccccc1)c1c(C(=O)O)[nH]c2ccccc12`, the viability is, setting by setting: under setting [1], 93.2%; (at 50 µM (top of the series)) 86% (inactive). Further, under setting [3], the minimum viability came out at 81.8%.
In the same order, the values of `CC(C)(C)CC(C)(C)c1ccc(OCC(=O)N/N=C/c2ccc(S(=O)(=O)O)o2)cc1` are 104%, 87.8% (inactive) and 81.1%.
As for `CCOc1ccc(C2C(C(=O)Nc3ccccc3)=C(C)N=c3s/c(=C/c4cccc(OCC(=O)O)c4)c(=O)n32)cc1` (stereo not drawn), the viability runs as follows: under setting [1], 94.8%; (at 50 µM (top of the series)) 96.2% (inactive). The minimum viability under setting [2] is 87.8%.
With `O=C(CCN1C(=O)/C(=C\C=C\c2ccccc2)SC1=S)Nc1ccccc1C(=O)O`, the viability under setting [1] was found to be 121%. In addition, where the note is “at 50 µM, stronger effect = lower value”, the minimum viability came out at 74.5%.
On to `COc1ccccc1OCCOc1ccc(/C=C2\C(=N)N3N=C(S(C)(=O)=O)SC3=NC2=O)cc1`, for which the viability is 98.1% under setting [1] and 89.2% (inactive) (at 50 µM (top of the series)). The minimum viability (at 50 µM, stronger effect = lower value) turned out to be 89.2%.
`Cc1ccc2nc(N3C(=O)C(O)=C(C(=O)c4ccco4)C3c3cccc(O)c3)sc2c1` (stereo not drawn): the viability was 105% under setting [1] and 93.2% (inactive) (at 50 µM (top of the series)). For the same molecule, the minimum viability under setting [2] was 84.4%.
